Measured values published in patent US9884818B2, “Sulphamoylpyrrolamide derivatives and the use thereof as medicaments for the treatment of hepatitis B” (Janssen Sciences Ireland UC, priority 2013, dated 2018).

Columns and labels:
[1] = Cytotoxicity in HepG2 cells, Resazurin viability assay; conditions: human, HepG2 cells, HepG2 4 days CC50 (μM), incubated for 4 days, Resazurin assay
HBV [2] = assay: Anti-HBV activity, HepG2.2.15 stable transfected cell line, HBV DNA from secreted virions by realtime PCR; format: cell-based; conditions: Hepatitis B virus, HepG2.2.15, 144 h, HepG2.2.15 cells, 6 days of treatment, HBV DNA from secreted virions; read-out: HepG2 2.15 EC50
HBV [3] = assay: Anti-HBV activity, HepG2.117 inducibly HBV producing cell line (Tet-off), intracellular HBV DNA by realtime PCR; format: cell-based; conditions: Hepatitis B virus, HepG2.117, 72 h, HepG2.117 cells, 3 days of treatment, intracellular HBV DNA; read-out: HepG2 117 EC50

SMILES | CC50 at 4 days [1] | EC50 (HBV [2]) | EC50 (HBV [3])
Cn1cc(S(=O)(=O)NC(C)(C)C)c(Cl)c1C(=O)Nc1ccc(F)c(C#N)c1 [Compound 226, 4-(tert-Butylsulfamoyl)-3-chloro-N-(3-cyano-4-fluorophenyl)-1-methyl-1H-pyrrole-2-carboxamide] | > 25 µM | 190 nM | 210 nM
Cn1cc(S(=O)(=O)NC2(C(F)(F)F)CC2)cc1C(=O)Nc1ccc(F)c(C#N)c1 [Compound 227, N-(3-Cyano-4-fluorophenyl)-1-methyl-4-{[1-(trifluoromethyl)cyclopropyl]sulfamoyl}-1H-pyrrole-2-carboxamide] | > 25 µM | 20 nM | 40 nM
C[C@@H](NS(=O)(=O)c1cn(C)c(C(=O)Nc2ccc(F)c(F)c2)c1F)C(F)(F)F [Compound 229, N-(3,4-Difluorophenyl)-3-fluoro-1-methyl-4-{[(1R)-2,2,2-trifluoro-1-methylethyl]sulfamoyl}-1H-pyrrole-2-carboxamide] | > 25 µM | 4 nM | 4 nM
CC(C)NS(=O)(=O)c1cn(C)c(C(=O)Nc2ccc(F)c(Br)c2)c1F [Compound 230, N-(3-Bromo-4-fluorophenyl)-3-fluoro-1-methyl-4-[(1-methylethyl)sulfamoyl]-1H-pyrrole-2-carboxamide] | > 25 µM | 8 nM | 30 nM
CC(C)NS(=O)(=O)c1cn(C)c(C(=O)Nc2ccc(F)c(C#N)c2F)c1F [Compound 231, N-(3-Cyano-2,4-difluorophenyl)-3-fluoro-1-methyl-4-[(1-methyl-ethyl)sulfamoyl]-1H-pyrrole-2-carboxamide] | > 25 µM | 40 nM | 30 nM
CC(C)NS(=O)(=O)c1cn(C)c(C(=O)Nc2ccc(F)c(F)c2)c1F [Compound 232, N-(3,4-Difluorophenyl)-3-fluoro-1-methyl-4-[(1-methylethyl)sulfamoyl]-1H-pyrrole-2-carboxamide] | > 25 µM | 20 nM | 20 nM
CC(C)NS(=O)(=O)c1cn(C)c(C(=O)Nc2ccc(F)c(F)c2F)c1F [Compound 233, 3-Fluoro-1-methyl-4-[(1-methylethyl)sulfamoyl]-N-(2,3,4-trifluorophenyl)-1H-pyrrole-2-carboxamide] | > 25 µM | 90 nM | 160 nM
CC(C)NS(=O)(=O)c1cn(C)c(C(=O)Nc2ccc(F)c(Cl)c2F)c1F [Compound 234, N-(3-Chloro-2,4-difluorophenyl)-3-fluoro-1-methyl-4-[(1-methyl-ethyl)sulfamoyl]-1H-pyrrole-2-carboxamide] | > 25 µM | 20 nM | 30 nM
CC(C)NS(=O)(=O)c1cn(C)c(C(=O)Nc2ccc(F)c(Cl)c2)c1F [Compound 235, N-(3-Chloro-4-fluorophenyl)-3-fluoro-1-methyl-4-[(1-methylethyl)sulfamoyl]-1H-pyrrole-2-carboxamide] | > 25 µM | 10 nM | 10 nM
Cn1cc(S(=O)(=O)NC(C)(C)C(F)(F)F)cc1C(=O)Nc1ccc(F)c(C#N)c1 [Compound 237, N-(3-Cyano-4-fluorophenyl)-1-methyl-4-[(2,2,2-trifluoro-1,1-di-methylethyl)sulfamoyl]-1H-pyrrole-2-carboxamide] | > 25 µM | 80 nM | 100 nM
CC(CC(F)(F)F)NS(=O)(=O)c1cc(C(=O)Nc2ccc(F)c(C#N)c2)n(C)c1 (stereo not drawn) [Compound 238, N-(3-Cyano-4-fluorophenyl)-1-methyl-4-[(3,3,3-trifluoro-1-methyl-propyl)sulfamoyl]-1H-pyrrole-2-carboxamide] | > 25 µM | 100 nM | 110 nM
CC[C@H](NS(=O)(=O)c1cc(C(=O)Nc2ccc(F)c(C#N)c2)n(C)c1)C(F)(F)F [Compound 239, N-(3-Cyano-4-fluorophenyl)-1-methyl-4-{[(1S)-1-(trifluoromethyl)-propyl]sulfamoyl}-1H-pyrrole-2-carboxamide] | > 25 µM | 20 nM | 10 nM
CC[C@@H](NS(=O)(=O)c1cc(C(=O)Nc2ccc(F)c(C#N)c2)n(C)c1)C(F)(F)F [Compound 240, N-(3-Cyano-4-fluorophenyl)-1-methyl-4-{[(1R)-1-(trifluoromethyl)-propyl]sulfamoyl}-1H-pyrrole-2-carboxamide] | > 25 µM | 20 nM | 50 nM
Cn1cc(S(=O)(=O)NC2(C(F)(F)F)CCC2)cc1C(=O)Nc1ccc(F)c(C#N)c1 [Compound 241, N-(3-Cyano-4-fluorophenyl)-1-methyl-4-{[1-(trifluoromethyl)cyclo-butyl]sulfamoyl}-1H-pyrrole-2-carboxamide] | > 25 µM | 10 nM | 10 nM
Cn1cc(S(=O)(=O)NC(CF)CF)cc1C(=O)Nc1ccc(F)c(C#N)c1 [Compound 242, N-(3-Cyano-4-fluorophenyl)-4-{[2-fluoro-1-(fluoromethyl)ethyl]sulfamoyl}-1-methyl-1H-pyrrole-2-carboxamide] | > 25 µM | 200 nM | 300 nM
Cc1c(S(=O)(=O)NC2(C)COC2)cn(C)c1C(=O)Nc1ccc(F)c(Cl)c1F [Compound 243, N-(3-Chloro-2,4-difluorophenyl)-1,3-dimethyl-4-[(3-methyloxetan-3-yl)sulfamoyl]-1H-pyrrole-2-carboxamide] | > 25 µM | 110 nM | 100 nM
Cn1cc(S(=O)(=O)NC2(C)CC2)cc1C(=O)Nc1ccc(F)c(C#N)c1 [Compound 244, N-(3-cyano-4-fluoro-phenyl)-1-methyl-4-[(1-methylcyclopropyl)-sulfamoyl]pyrrole-2-carboxamide] | > 25 µM | 140 nM | 530 nM
Cn1cc(S(=O)(=O)NC2(C)CC(F)(F)C2)cc1C(=O)Nc1ccc(F)c(C#N)c1 [Compound 245, N-(3-cyano-4-fluoro-phenyl)-4-[(3,3-difluoro-1-methyl-cyclobutyl)sulfamoyl]-1-methyl-1H-pyrrole-2-carboxamide] | > 25 µM | 40 nM | 40 nM
CCC(C)(NS(=O)(=O)c1cc(C(=O)Nc2ccc(F)c(C#N)c2)n(C)c1)C(F)(F)F (stereo not drawn) [Compound 246, N-(3-cyano-4-fluoro-phenyl)-1-methyl-4-{[1-methyl-1-(trifluoro-methyl)propyl]sulfamoyl}-1H-pyrrole-2-carboxamide] | > 25 µM | 50 nM | 60 nM
Cn1cc(S(=O)(=O)NC2(C(F)(F)F)CCOCC2)cc1C(=O)Nc1ccc(F)c(C#N)c1 [Compound 247, N-(3-cyano-4-fluoro-phenyl)-1-methyl-4-{[4-(trifluoromethyl)tetrahydropyran-4-yl]sulfamoyl}-1H-pyrrole-2-carboxamide] | > 25 µM | 30 nM | 30 nM
CCC(CC)(NS(=O)(=O)c1cc(C(=O)Nc2ccc(F)c(C#N)c2)n(C)c1)C(F)(F)F [Compound 248, N-(3-cyano-4-fluoro-phenyl)-4-{[1-ethyl-1-(trifluoromethyl)propyl]sulfamoyl}-1-methyl-1H-pyrrole-2-carboxamide] | > 25 µM | 30 nM | 70 nM
Cn1cc(S(=O)(=O)NC(C)(C)CF)cc1C(=O)Nc1ccc(F)c(C#N)c1 [Compound 249, N-(3-cyano-4-fluoro-phenyl)-4-[(2-fluoro-1,1-dimethyl-ethyl)sulfamoyl]-1-methyl-1H-pyrrole-2-carboxamide] | 1.7 µM | 70 nM | 180 nM
C[C@@H](NS(=O)(=O)c1cn(C)c(C(=O)Nc2cccc(Br)c2)c1Cl)C(F)(F)F [Compound 250, N-(3-Bromophenyl)-3-chloro-1-methyl-4-{[(1R)-2,2,2-trifluoro-1-methylethyl]sulfamoyl}-1H-pyrrole-2-carboxamide] | 20 µM | 7 nM | 400 nM
Cn1cc(S(=O)(=O)NC2(C)COC2)c(F)c1C(=O)Nc1cccc(Br)c1 [Compound 251, N-(3-Bromophenyl)-3-fluoro-1-methyl-4-[(3-methyloxetan-3-yl)sulfamoyl]-1H-pyrrole-2-carboxamide] | > 25 µM | 10 nM | 60 nM
CC(NS(=O)(=O)c1cc(C(=O)Nc2ccc(F)c(Cl)c2F)n(C)c1)C(F)F (stereo not drawn) [Compound 252, N-(3-chloro-2,4-difluoro-phenyl)-4-[(2,2-difluoro-1-methyl-ethyl)sulfamoyl]-1-methyl-1H-pyrrole-2-carboxamide] | > 25 µM | 50 nM | 80 nM
Cn1cc(S(=O)(=O)NC2(C(F)(F)F)CC2)cc1C(=O)Nc1ccc(F)c(Cl)c1F [Compound 253, N-(3-chloro-2,4-difluoro-phenyl)-1-methyl-4-{[1-(trifluoromethyl)-cyclopropyl]sulfamoyl}-1H-pyrrole-2-carboxamide] | > 25 µM | 10 nM | 10 nM
Cn1cc(S(=O)(=O)NC(C)(C)C(F)(F)F)cc1C(=O)Nc1ccc(F)c(Cl)c1F [Compound 254, N-(3-chloro-2,4-difluoro-phenyl)-1-methyl-4-[(2,2,2-trifluoro-1,1-dimethyl-ethyl)sulfamoyl]-1H-pyrrole-2-carboxamide] | > 25 µM | 50 nM | 50 nM
Cn1cc(S(=O)(=O)NC2(C)CC2)cc1C(=O)Nc1ccc(F)c(Cl)c1F [Compound 255, N-(3-chloro-2,4-difluoro-phenyl)-1-methyl-4-[(1-methylcyclopropyl)-sulfamoyl]-1H-pyrrole-2-carboxamide] | > 25 µM | 90 nM | 100 nM
